The results in this text go back to US8877351B2, “Organometallic complex, and lighting apparatus, and electronic device using the organometallic complex” (Semiconductor Energy Laboratory Co., Ltd., priority 2008, dated 2014).

This series can be described thus: solubility determination in organic solvents. It counts as physicochemical. The source says: It is confirmed that Ir(dbq-tBuP)2(acac) can be dissolved in each of 2-ethoxyethanol, 1,4-dioxane, chloroform, and toluene.

Consider `CC(=O)C=C(C)[O][Ir]([c]1cc(C(C)(C)C)ccc1-c1cnc2c3ccccc3c3ccccc3c2n1)[c]1cc(C(C)(C)C)ccc1-c1cnc2c3ccccc3c3ccccc3c2n1` [Ir(dbq-tBuP)2(acac), (acetylacetonato)bis{2-(4-tert-butylphenyl)-dibenzo[f,h]quinoxalinato}iridium(III)], for which the solubility by setting is: (in chloroform) at least 1.2 g/L; (in toluene) at least 1.2 g/L. Further, the Solubility x reads like this: (solvent: Chloroform) 1.2 ≦ x g/L; (solvent: Ethanol) “x < 0.6 g/L”; (solvent: Isopropyl alcohol) “x < 0.6 g/L”; (solvent: Toluene) 1.2 ≦ x g/L.

Usually solubility stands for the concentration that dissolves in the medium under given conditions. Higher therefore signals a readily soluble substance.
